According to PubChem BioAssay AID256 (DTP/NCI, 2004):
Several values for one entry are separate records, joined by “and”; a condition that tells them apart may be missing. Equal entries are not always repeated. Toxic doses and inconclusive results are not listed. Residues, ends and D or L forms follow the SMILES beside them. *: point of attachment. Cbz = O=C(OCc1ccccc1)*

System: CD2F1 mice, L1210 leukemia ip, survival T/C
Test: NCI In Vivo Anticancer Drug Screen. Data for tumor model L1210 Leukemia (intraperitoneal) in CD2F1 (CDF1) mice
Settings: endpoint: mean survival time, higher = longer survival
Outline: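 Implant tumor; dose compound or vehicle; measure endpoint in both groups; report treated divided by control.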

[1] = dose: 100.0 mg/kg/injection, schedule: Q01DX001 (ip), vehicle: saline
[2] = dose: 12.5 mg/kg/injection, schedule: Q04DX003 (ip), vehicle: saline
[3] = dose: 25.0 mg/kg/injection, schedule: Q01DX001 (ip), vehicle: saline
[4] = dose: 25.0 mg/kg/injection, schedule: Q01DX009 (ip), vehicle: saline
[5] = dose: 25.0 mg/kg/injection, schedule: Q04DX003 (ip), vehicle: saline
[6] = dose: 50.0 mg/kg/injection, schedule: Q01DX001 (ip), vehicle: saline
[7] = dose: 50.0 mg/kg/injection, schedule: Q01DX009 (ip), vehicle: saline
[8] = dose: 50.0 mg/kg/injection, schedule: Q04DX003 (ip), vehicle: saline
[9] = dose: 100.0 mg/kg/injection, schedule: Q01DX009 (ip), vehicle: saline
[10] = dose: 100.0 mg/kg/injection, schedule: Q04DX003 (ip), vehicle: saline
[11] = dose: 200.0 mg/kg/injection, schedule: Q01DX001 (ip), vehicle: saline
[12] = dose: 200.0 mg/kg/injection, schedule: Q04DX003 (ip), vehicle: saline
[13] = dose: 400.0 mg/kg/injection, schedule: Q01DX001 (ip), vehicle: saline
[14] = dose: 100.0 mg/kg/injection, schedule: Q04DX002 (ip), vehicle: saline with Tween-80
[15] = dose: 200.0 mg/kg/injection, schedule: Q04DX002 (ip), vehicle: saline with Tween-80
[16] = dose: 100.0 mg/kg/injection, schedule: Q01DX009 (ip), vehicle: saline with Tween-80
[17] = dose: 100.0 mg/kg/injection, schedule: Q04DX003 (ip), vehicle: saline with Tween-80
[18] = dose: 200.0 mg/kg/injection, schedule: Q01DX009 (ip), vehicle: saline with Tween-80
[19] = dose: 200.0 mg/kg/injection, schedule: Q04DX003 (ip), vehicle: saline with Tween-80
[20] = dose: 400.0 mg/kg/injection, schedule: Q01DX009 (ip), vehicle: saline with Tween-80
[21] = dose: 400.0 mg/kg/injection, schedule: Q04DX003 (ip), vehicle: saline with Tween-80
[22] = dose: 12.5 mg/kg/injection, schedule: Q01DX009 (ip), vehicle: saline with Tween-80
[23] = dose: 25.0 mg/kg/injection, schedule: Q01DX009 (ip), vehicle: saline with Tween-80
[24] = dose: 50.0 mg/kg/injection, schedule: Q01DX009 (ip), vehicle: saline with Tween-80
[25] = dose: 100.0 mg/kg/injection, schedule: Q01DX001 (ip), vehicle: saline with Tween-80
[26] = dose: 200.0 mg/kg/injection, schedule: Q01DX001 (ip), vehicle: saline with Tween-80
[27] = dose: 400.0 mg/kg/injection, schedule: Q01DX001 (ip), vehicle: saline with Tween-80
[28] = dose: 400.0 mg/kg/injection, schedule: Q04DX002 (ip), vehicle: saline with Tween-80

CN1CC(=O)NC1=S
T/C [1]: 87 % of control

CC(=O)Oc1ccc2c(c1)C(=O)CCCCCC(=O)O2
T/C (dose: 12.5 mg/kg/injection, schedule: Q01DX009 (ip), vehicle: saline): 100 % of control | T/C [2]: 97 % of control | T/C [3]: 98 % of control | T/C [4]: 97 % of control | T/C [5]: 98 % of control | T/C [6]: 110 % of control | T/C [7]: 94 % of control | T/C [8]: 111 % of control | T/C [1]: 98 % of control | T/C [9]: 95 % of control | T/C [10]: 120 % of control | T/C [11]: 100 % of control | T/C (dose: 200.0 mg/kg/injection, schedule: Q01DX009 (ip), vehicle: saline): 89 % of control | T/C [12]: 102 % of control | T/C [13]: 111 % of control

O=c1oc(-c2ccccc2)nc2c(Cl)ccc(Cl)c12
T/C (dose: 90.0 mg/kg/injection, schedule: Q04DX003 (ip), vehicle: other): 107 % of control | T/C (dose: 135.0 mg/kg/injection, schedule: Q04DX003 (ip), vehicle: other): 97 % of control | T/C (dose: 200.0 mg/kg/injection, schedule: Q04DX003 (ip), vehicle: other): 119 % of control | T/C (dose: 300.0 mg/kg/injection, schedule: Q04DX003 (ip), vehicle: other): 102 % of control

O=c1oc(-c2cccc(Cl)c2)nc2cc(Cl)ccc12
T/C (dose: 100.0 mg/kg/injection, schedule: Q01DX001 (ip), vehicle: Klucel (hydroxypropylcellulose) (HPC)): 98 % of control | T/C (dose: 200.0 mg/kg/injection, schedule: Q01DX001 (ip), vehicle: Klucel (hydroxypropylcellulose) (HPC)): 95 % of control | T/C (dose: 400.0 mg/kg/injection, schedule: Q01DX001 (ip), vehicle: Klucel (hydroxypropylcellulose) (HPC)): 94 % of control

C[N+](C)(C)C1CCCC1O (stereo not drawn)
T/C (dose: 25.0 mg/kg/injection, schedule: Q04DX002 (ip), vehicle: saline with Tween-80): 98 % of control | T/C (dose: 50.0 mg/kg/injection, schedule: Q04DX002 (ip), vehicle: saline with Tween-80): 98 % of control | T/C [14]: 95 % of control | T/C [15]: 95 % of control

CCOC(=O)C(=CNc1ccc(C)cn1)C(=O)OCC
T/C [16]: 93 % of control | T/C [17]: 92 % of control | T/C [18]: 98 % of control | T/C [19]: 95 % of control | T/C [20]: 97 % of control | T/C [21]: 103 % of control

Nc1ccc(N=Nc2ccccc2)c(N)c1
T/C [10]: 97 % of control | T/C [12]: 90 % of control | T/C (dose: 400.0 mg/kg/injection, schedule: Q04DX003 (ip), vehicle: saline): 100 % of control

CCOC(=O)c1cn[nH]c1/N=N/N(C)C
T/C (dose: 100.0 mg/kg/injection, schedule: Q01DX001 (ip), vehicle: carboxymethylcellulose (CMC)): 115 % of control

CS(=O)(=O)c1ncc(Br)cn1
T/C (dose: 3.12 mg/kg/injection, schedule: Q01DX009 (ip), vehicle: saline with Tween-80): 101 % of control | T/C (dose: 3.13 mg/kg/injection, schedule: Q01DX009 (ip), vehicle: saline with Tween-80): 101 % of control | T/C (dose: 6.25 mg/kg/injection, schedule: Q01DX009 (ip), vehicle: saline with Tween-80): 101 % of control and 106 % of control | T/C [22]: 101 % of control and 102 % of control | T/C [23]: 95 % of control and 107 % of control | T/C [24]: 103 % of control and 104 % of control | T/C [16]: 104 % of control and 108 % of control

CC(=O)O.CC(=O)O.[Co].[NH2-].[NH2-].[NH2-].[NH2-]
T/C (dose: 6.25 mg/kg/injection, schedule: Q04DX002 (ip), vehicle: saline with Tween-80): 93 % of control | T/C (dose: 12.5 mg/kg/injection, schedule: Q04DX002 (ip), vehicle: saline with Tween-80): 87 % of control

CCN(CC)CCCCNc1ccc(NCCCCN(CC)CC)c2c1C(=O)c1ccccc1C2=O
T/C [4]: 109 % of control | T/C [7]: 90 % of control | T/C [9]: 95 % of control

CN(C)C(=O)c1cc[n+](Cc2ccc(Cl)c(Cl)c2)cc1
T/C [4]: 98 % of control | T/C [7]: 121 % of control | T/C [9]: 89 % of control

CN(C)N=Nc1ccccc1C(=O)NCC#N
T/C (dose: 18.75 mg/kg/injection, schedule: Q01DX009 (ip), vehicle: Klucel (hydroxypropylcellulose) (HPC)): 100 % of control and 103 % of control | T/C (dose: 37.5 mg/kg/injection, schedule: Q01DX009 (ip), vehicle: Klucel (hydroxypropylcellulose) (HPC)): 106 % of control and 107 % of control | T/C (dose: 75.0 mg/kg/injection, schedule: Q01DX009 (ip), vehicle: Klucel (hydroxypropylcellulose) (HPC)): 112 % of control | T/C (dose: 150.0 mg/kg/injection, schedule: Q01DX009 (ip), vehicle: Klucel (hydroxypropylcellulose) (HPC)): 91 % of control

COc1ccc(C2=NNC(=O)CC2)cc1OC
T/C [2]: 107 % of control | T/C [5]: 115 % of control | T/C [8]: 98 % of control

NC(=O)CNC(=O)CNC(=O)CNC(=O)OCc1ccccc1 (Cbz-Gly-Gly-Gly-NH2)
T/C [22]: 105 % of control | T/C [23]: 102 % of control | T/C [24]: 95 % of control

CC(C(=O)O)C(=O)O.[NH-]CC[NH-].[Pt+2]
T/C (dose: 60.0 mg/kg/injection, schedule: Q04DX003 (ip), vehicle: water): 116 % of control

CC1(C)OC2C(COC(=O)Oc3ccccc3)OC(n3cnc4c(=O)[nH]cnc43)C2O1 (stereo not drawn)
T/C [25]: 101 % of control | T/C [14]: 102 % of control | T/C [26]: 97 % of control | T/C [15]: 94 % of control | T/C [27]: 94 % of control | T/C [28]: 97 % of control

CN(CCCCN(C)CCOS(C)(=O)=O)CCOS(C)(=O)=O
T/C (dose: 0.4 mg/kg/injection, schedule: Q01DX009 (ip), vehicle: saline): 112 % of control | T/C (dose: 0.8 mg/kg/injection, schedule: Q01DX009 (ip), vehicle: saline): 115 % of control | T/C (dose: 3.6 mg/kg/injection, schedule: Q01DX001 (ip), vehicle: saline): 110 % of control | T/C (dose: 4.0 mg/kg/injection, schedule: Q01DX009 (ip), vehicle: saline): 103 % of control | T/C (dose: 8.3 mg/kg/injection, schedule: Q01DX001 (ip), vehicle: saline): 118 % of control | T/C (dose: 12.5 mg/kg/injection, schedule: Q01DX001 (ip), vehicle: saline): 150 % of control | T/C [3]: 156 % of control

Nc1ncnc2nc(-c3ccc(C(=O)c4cccc([N+](=O)[O-])c4)cc3)[nH]c12
T/C (dose: 100.0 mg/kg/injection, schedule: Q04DX003 (ip), vehicle: Klucel (hydroxypropylcellulose) (HPC)): 108 % of control | T/C (dose: 200.0 mg/kg/injection, schedule: Q04DX003 (ip), vehicle: Klucel (hydroxypropylcellulose) (HPC)): 102 % of control | T/C (dose: 400.0 mg/kg/injection, schedule: Q04DX003 (ip), vehicle: Klucel (hydroxypropylcellulose) (HPC)): 100 % of control

c1ccc2c(-c3nn[nH]n3)nccc2c1
T/C [1]: 106 % of control | T/C [11]: 113 % of control

CN(C)S(=O)(=O)c1ccccc1C(O)(c1ccccc1)c1ccccc1 (tested in a mixture with another compound)
T/C [17]: 92 % of control | T/C [19]: 87 % of control | T/C [21]: 98 % of control

C1CN(P2(N3CC3)=NP(N3CC3)(N3CC3)=NP(N3CC3)(N3CC3)=N2)CCO1 (stereo not drawn)
T/C (dose: 6.25 mg/kg/injection, schedule: Q01DX009 (ip), vehicle: saline): 120 % of control and 123 % of control and 109 % of control | T/C [3]: 121 % of control | T/C [6]: 119 % of control | T/C [9]: 98 % of control

COc1ccccc1C(=O)C1N=C(c2ccccc2)OC1=O (stereo not drawn)
T/C [1]: 98 % of control | T/C [11]: 97 % of control | T/C [13]: 97 % of control

COc1cc([N+](=O)[O-])ccc1NC(=O)N1CCCC(C)C1 (stereo not drawn)
T/C [25]: 94 % of control and 95 % of control | T/C [16]: 88 % of control and 93 % of control | T/C [14]: 98 % of control | T/C [17]: 101 % of control | T/C [26]: 86 % of control and 89 % of control | T/C [18]: 95 % of control and 106 % of control | T/C [15]: 98 % of control | T/C [19]: 103 % of control | T/C [27]: 86 % of control | T/C [20]: 88 % of control and 98 % of control | T/C [28]: 96 % of control | T/C [21]: 100 % of control
